Source: US4217450A, “Imidazoledicarboxylic acid substituted cephalosporin derivatives” (Ajinomoto Company, Incorporated, priority 1977, dated 1980)
Converted amounts (≈) assume the structure as drawn. Structures can show the parent of a compound that is named as a salt.

System: Pseudomonas aeruginosa AJ 2116
Assay: MIC using Pseudomonas aeruginosa AJ 2116 as the test organism
Assay type: cell-based
Details: AJ2116, read-out: MIC (Minimum Inhibitory concentration)
From the text: Comparative MIC's for compounds using Pseudomonas aeruginosa AJ 2116 as the test organism are as follows: "MIC" represents the Minimum INhibitory concentration in mcg./ml of the compound required to inhibit the growth of the test organism described.

| MIC [µg/mL] | Compound |
| --- | --- |
| 100 (≈ 264 µM) | CC1(C)S[C@@H]2[C@H](NC(=O)C(C(=O)O)c3ccccc3)C(=O)N2[C@H]1C(=O)O (some centres unmarked) [Carbenicillin, reference compound] |
| 12.5 | CC1(C)S[C@@H]2[C@H](NC(=O)[C@H](NC(=O)c3nc[nH]c3C(=O)O)c3ccccc3)C(=O)N2[C@H]1C(=O)O [I, D-α-(4-carboxyimidazole-5-carboxyamido)benzylpenicillin disodium salt monohydrate] |
| 12.5 | NC(=O)c1cc[n+](CC2=C(C(=O)[O-])N3C(=O)[C@@H](NC(=O)[C@H](NC(=O)c4nc[nH]c4C(=O)O)c4ccccc4)[C@H]3SC2)cc1 [II, 7-β-[D-(-)-α-(4-carboxyimidazole-5-carbox-amido)-phenylacetoamido]-3-(4-carbamoylpyridinium)methyl-3-cephem-4-carboxylic acid.mixture of K and Na salt.trihydrate] |
| 25 (≈ 49.7 µM) | CC1(C)S[C@@H]2[C@H](NC(=O)[C@H](NC(=O)c3nc(O)[nH]c3C(=O)O)c3ccccc3)C(=O)N2[C@H]1C(=O)O [III, D-α-(2-hydroxy-4-carboxyimidazole-5-carboxamido)benzylpenicillin] |
| 50 (≈ 96.2 µM) | CC1(C)S[C@@H]2[C@H](NC(=O)[C@H](NC(=O)c3nc(S)[nH]c3C(=O)O)c3ccccc3)C(=O)N2[C@H]1C(=O)O [IV, D-α-(2-mercapto-4-carboxyimidazole-5-carboxamido)benzylpenicillin] |
| 12.5 (≈ 18.6 µM) | O=C([O-])C1=C(C[n+]2ccc(CCS(=O)(=O)O)cc2)CS[C@@H]2[C@H](NC(=O)[C@H](NC(=O)c3nc[nH]c3C(=O)O)c3ccccc3)C(=O)N12 [IX, 7-β-[D-(-)-α-(4-carboxyimidazole-5-carboxamido)phenylacetamido]-3-(4-β-sulphoethylpyridinium)-methyl-3-cephem-4-carboxylic acid] |
| 50 (≈ 99.7 µM) | Cc1nc(C(=O)N[C@@H](C(=O)N[C@@H]2C(=O)N3[C@@H]2SC(C)(C)[C@@H]3C(=O)O)c2ccccc2)c(C(=O)O)[nH]1 [V, D-α-(2-methyl-4-carboxyimidazole-5-carboxamido) benzylpenicillin] |
| 50 (≈ 95.8 µM) | CC1(C)S[C@@H]2[C@H](NC(=O)[C@H](NC(=O)c3nc(Cl)[nH]c3C(=O)O)c3ccccc3)C(=O)N2[C@H]1C(=O)O [VI, D-α-(2-chloro-4-carboxyimidazole-5-carboxamido)benzylpenicillin] |
| 50 (≈ 99.5 µM) | CC1(C)S[C@@H]2[C@H](NC(=O)[C@H](NC(=O)c3nc(N)[nH]c3C(=O)O)c3ccccc3)C(=O)N2[C@H]1C(=O)O [VII, D-α-(2-amino-4-carboxyimidazole-5-carboxamido)benzylpenicillin] |
| 50 (≈ 83.4 µM) | Cn1nnnc1SCC1=C(C(=O)O)N2C(=O)[C@@H](NC(=O)[C@H](NC(=O)c3nc[nH]c3C(=O)O)c3ccccc3)[C@H]2SC1 [VIII, 7-β-[-(-)-α-(4-carboxyimidazole-5-carboxamido)phenylacetamido]-3-[[(1-methyl-1H-tetrazol-5-yl)thio]methyl]-3-cephem-4-carboxylic acid] |
| > 500 | CC1(C)S[C@@H]2[C@H](NC(=O)[C@H](N)c3ccccc3)C(=O)N2[C@H]1C(=O)O [ampicillin, reference compound] |
